Patent publication US8754038B2, “Template-fixed peptidomimetics with CCR10 antagonistic activity” (priority 2009, dated 2014)
Square brackets hold non-standard residues; d marks the D form. Peptide text beside a SMILES is read from it. * marks the point of attachment. Pro(cis-4-Ph) = O=C(O)[C@@H]1C[C@H](c2ccccc2)CN1; Phe(4-CF3) = N[C@@H](Cc1ccc(C(F)(F)F)cc1)C(=O)O; Pro(4R-Bn) = O=C(O)[C@@H]1C[C@@H](Cc2ccccc2)CN1; Trp(5-OH) = N[C@@H](Cc1c[nH]c2ccc(O)cc12)C(=O)O; Phe(4-CN) = N#Cc1ccc(C[C@H](N)C(=O)O)cc1; Phe(4-Cl) = N[C@@H](Cc1ccc(Cl)cc1)C(=O)O; Pro(cis-4-F) = O=C(O)[C@@H]1C[C@H](F)CN1; Tic(7-OH) = O=C(O)[C@@H]1Cc2ccc(O)cc2CN1; 2Nal = N[C@@H](Cc1ccc2ccccc2c1)C(=O)O; Thz(5,5-Me2) = CC1(C)SCN[C@@H]1C(=O)O; cisHyp = O=C(O)[C@@H]1C[C@H](O)CN1; Hyp = O=C(O)[C@@H]1C[C@@H](O)CN1; Tic = O=C(O)[C@@H]1Cc2ccccc2CN1; Benzyl(4-Br) = Brc1ccc(C*)cc1; Pip = O=C(O)[C@@H]1CCCCN1; dPip = O=C(O)[C@H]1CCCCN1; Thz = O=C(O)[C@@H]1CSCN1; Ac5c = NC1(C(=O)O)CCCC1; Dab = NCC[C@H](N)C(=O)O; dAze = O=C(O)[C@H]1CCN1; Aib = CC(C)(N)C(=O)O; Bn = c1ccc(C*)cc1

Experiments:
human CCR10 [1] = target: T1, human CCR10 (Homo sapiens, UniProt P46092); assay: Calcium flux assay (CCR10 antagonism, CCL27 as agonist); assay type: cell-based; conditions: CCR10 transfected 300-19 murine pre-B cells; CCL27 30 nM
T1 construct: expressed in transfected cells
T1 sequence (P46092 1-362): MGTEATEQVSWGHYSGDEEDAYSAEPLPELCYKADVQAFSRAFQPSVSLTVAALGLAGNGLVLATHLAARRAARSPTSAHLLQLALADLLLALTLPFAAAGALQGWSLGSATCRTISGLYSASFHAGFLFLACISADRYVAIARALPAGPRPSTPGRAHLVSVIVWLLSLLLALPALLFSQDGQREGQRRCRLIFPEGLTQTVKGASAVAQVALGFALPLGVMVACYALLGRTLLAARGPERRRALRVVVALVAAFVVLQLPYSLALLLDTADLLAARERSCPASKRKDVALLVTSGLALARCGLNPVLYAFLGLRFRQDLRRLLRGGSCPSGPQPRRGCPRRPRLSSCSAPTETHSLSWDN
Procedure: (§1) Lyophilized peptides were weighed on a Microbalance (Mettler MX5) and dissolved in aqueous 90% DMSO to a final concentration of 10 mM unless otherwise stated. Stock solutions were kept at +4° C., and protected from light.
(§2) Peptides were assayed for CCR10 antagonism in a calcium flux assay and in a chemotaxis assay using a mouse pre-B cell line 300-19 stably transfected with human CCR10, and with human CCL27 as agonist.
The calcium flux release was assessed using CCR10 transfected 300-19 murine pre-B cells. These cells were labeled as a batch with Calcium4 Reagent (Molecular Devices, Sunnyvale, Calif.) in HBSS buffer for 60 min.
After dispensing 8×10^4 cells in each well of a 384-well black plate, a concentrated solution of the β-hairpin peptidomimetics of this invention in HBSS+0.1% BSA+0.1% DMSO (final concentration) was added to the cells. The entire plate was centrifuged and placed in a Flexstation II (Molecular Devices) automated plate reader. After reading a 20 s baseline, the Flexstation dispensed CCL27 (RnD systems) at a final concentration of 30 nM in HBSS+0.1% BSA onto the cells and calcium flux was measured for an additional 70 s.
Alternatively a FIipR384 (Molecular Devices) was used for read out of the 384-well plates. In this case about 8×10^4 cells were placed in each well, centrifuged, placed in the FlipR and after 5 s of baseline reading, the β-hairpin peptidomimetics in HBSS+0.1% BSA+0.1% DMSO (final concentration) were added. After an incubation time of 5 min, the CCL27 solution was added to the mixture and the calcium flux was measured for 200 s.
The maximum signal was determined from control wells without inhibitor. Percentage of inhibition was calculated from a range of compound concentrations, which were subsequently used to calculate IC50 values (Softmax Pro, Molecular Devices). All steps were carried out at room temperature.

human CCR10 [2] = target: T1, human CCR10; assay: Chemotaxis assay (CCR10-transfected 300-19 cells, CCL27 gradient); assay type: cell-based; conditions: CCR10-transfected 300-19 murine pre-B cells; 30 nM CCL27 gradient
Procedure: as §1, §2
The chemotactic response of CCR10-transfected 300-19 murine pre-B cells to a gradient of CCL27 (CTACK) was measured using disposable Transwell® assay plates from Costar (5 μm pore size) according to the protocol of the manufacturer. Briefly, cells were grown under sterile conditions at 37° C. with 5% CO2 in flasks containing RPMI+5% FCS, glutamine, penicillin/streptomycin (all media components were from Life Technologies) and the appropriate selection antibiotics (Puromycin, G418 or Tetracycline). For the assay, cells were pelleted by centrifugation, washed once in Dulbecco's phosphate buffered saline (DPBS), and resuspended to give 1×10^6 cells/ml in RPMI+0.5% bovine serum albumin (BSA). 100 μl of cell suspension was applied to the top of the assay filter. The β-hairpin peptidomimetics, diluted in the same assay medium, were added to both top and bottom chambers. The cells were allowed to migrate for 4-6 hours at 37° C. into the bottom chamber of the assay plate containing 30 nM of CCL27 (RnD systems). Migrated cells were counted using a FACS cytometer (Cytomics FC500, Beckman Coulter). Data normalization was performed using the number of any cells that had migrated in the absence of the β-hairpin peptidomimetic and the number of cells that have randomly migrated in absence of CCL27 [these values were taken as 100% (no inhibitory activity) and 0%, respectively]. From a range of compound concentrations IC50 were determined using Prism5 (GraphPad software).

Structure (SMILES)	IC50 (human CCR10 [1]) [nM]	IC50 (human CCR10 [2]) [nM]
CC1(C)NC(=O)[C@H](Cc2c[nH]c3ccccc23)NC(=O)[C@@H]2Cc3ccccc3CN2C(=O)[C@H]2CCCN2C(=O)[C@H](CCN)NC(=O)[C@H](Cc2c[nH]c3ccccc23)NC1=O [Ex. 2, cyclo(-Trp-Aib-Trp-Dab-^DPro-Tic-)] (cyclo([Aib]W[Dab][dP][Tic]W))	200 ± 56.5	21.6
NCC[C@@H]1NC(=O)[C@H](Cc2c[nH]c3ccccc23)NC(=O)C2(CCCC2)NC(=O)[C@H](Cc2c[nH]c3ccccc23)NC(=O)[C@@H]2C[C@H](F)CN2C(=O)[C@H]2CCCN2C1=O [Ex. 4, cyclo(-Trp-Cyp-Trp-Dab-^DPro-Pro((4S)F)—)] (cyclo([Ac5c]W[Dab][dP][Pro(cis-4-F)]W))	860 ± 382	42
NCC[C@@H]1NC(=O)[C@H](Cc2c[nH]c3ccccc23)NC(=O)C2(CCCC2)NC(=O)[C@H](Cc2ccc3ccccc3c2)NC(=O)[C@@H]2CCCCN2C(=O)[C@H]2CCCCN2C1=O [Ex. 10, cyclo(-2NaI-Cyp-Trp-Dab-^DPip-Pip-)] (cyclo([2Nal][Ac5c]W[Dab][dPip][Pip]))	43.2 ± 44.9	9.7
NCC[C@@H]1NC(=O)[C@H](Cc2c[nH]c3ccccc23)NC(=O)C2(CCCC2)NC(=O)[C@H](Cc2ccc(C(F)(F)F)cc2)NC(=O)[C@@H]2C[C@H](c3ccccc3)CN2C(=O)[C@H]2CCCCN2C1=O [Ex. 37, cyclo(-Phe(4CF3)—Cyp-Trp-Dab-^DPip-Pro((4R)Ph)-)] (cyclo([Ac5c]W[Dab][dPip][Pro(cis-4-Ph)][Phe(4-CF3)]))	14.8 ± 12	22
NCC[C@@H]1NC(=O)[C@H](Cc2c[nH]c3ccccc23)NC(=O)C2(CCCC2)NC(=O)[C@H](Cc2c[nH]c3ccccc23)NC(=O)[C@@H]2C[C@@H](Cc3ccccc3)CN2C(=O)[C@H]2CCCN2C1=O [Ex. 38, cyclo(-Trp-Cyp-Trp-Dab-^DPro-Pro((4R)Bn)-)] (cyclo([Ac5c]W[Dab][dP][Pro(4R-Bn)]W))	26.1 ± 8.1	2.3
NCC[C@@H]1NC(=O)[C@H](Cc2ccc(Cl)cc2)NC(=O)C2(CCCC2)NC(=O)[C@H](Cc2c[nH]c3ccccc23)NC(=O)[C@@H]2C[C@@H](OCc3ccccc3)CN2C(=O)[C@H]2CCCN2C1=O [Ex. 43, cyclo(-Trp-Cyp-Phe(4Cl)-Dab-^DPro-Hyp(Bn)-)] (cyclo([Ac5c][Phe(4-Cl)][Dab][dP][Hyp](Bn)W))	39.9 ± 34.8	–
NCC[C@@H]1NC(=O)[C@H](Cc2c[nH]c3ccccc23)NC(=O)C2(CCCC2)NC(=O)[C@H](Cc2c[nH]c3ccccc23)NC(=O)[C@@H]2C[C@H](OCc3ccccc3)CN2C(=O)[C@H]2CCCN2C1=O [Ex. 51, cyclo(-Trp-Cyp-Trp-Dab-^DPro-(4S)-Hyp(Bn)-)] (cyclo([Ac5c]W[Dab][dP][cisHyp](Bn)W))	260 ± 154	60.1
NCC[C@@H]1NC(=O)[C@H](Cc2c[nH]c3ccccc23)NC(=O)C2(CCCC2)NC(=O)[C@H](Cc2ccc(C(F)(F)F)cc2)NC(=O)[C@@H]2C[C@@H](OCc3ccc(Br)cc3)CN2C(=O)[C@H]2CCCN2C1=O [Ex. 54, cyclo(-Phe(4CF3)-Cyp-Trp-Dab-^DPro-Hyp(4BrBn)-)] (cyclo([Ac5c]W[Dab][dP][Hyp](Benzyl(4-Br))[Phe(4-CF3)]))	22.6 ± 13.6	–
N#Cc1ccc(C[C@@H]2NC(=O)[C@@H]3C[C@@H](OCc4ccccc4)CN3C(=O)[C@H]3CCCN3C(=O)[C@H](CCC(N)=O)NC(=O)[C@H](Cc3c[nH]c4ccccc34)NC(=O)C3(CCCC3)NC2=O)cc1 [compound 47, cyclo(-Phe(4CN)-Cyp-Trp-Gln-^DPro-Hyp(Bn)-)] (cyclo([Ac5c]WQ[dP][Hyp](Bn)[Phe(4-CN)]))	21.7 ± 3.9	–

The next lines start with the values.

IC50 (human CCR10 [1]) [nM]	IC50 (human CCR10 [2]) [nM]	Structure (SMILES)
226 ± 187	94	CC1(C)NC(=O)[C@H](Cc2c[nH]c3ccccc23)NC(=O)[C@@H]2Cc3ccccc3CN2C(=O)[C@H]2CCCN2C(=O)[C@H](CCCNC(=N)N)NC(=O)[C@H](Cc2c[nH]c3ccccc23)NC1=O [Ex. 1, cyclo(-Trp-Aib-Trp-Arg-^DPro-Tic-)] (cyclo([Aib]WR[dP][Tic]W))
78.5 ± 38.6	–	N=C(N)NCCC[C@@H]1NC(=O)[C@H](Cc2c[nH]c3ccccc23)NC(=O)C2(CCCC2)NC(=O)[C@H](Cc2c[nH]c3ccccc23)NC(=O)[C@@H]2Cc3ccc(O)cc3CN2C(=O)[C@H]2CCCN2C1=O [Ex. 3, cyclo(-Trp-Cyp-Trp-Arg-^DPro-Tic(7OH)—)] (cyclo([Ac5c]WR[dP][Tic(7-OH)]W))
70.6 ± 20.1	–	N=C(N)NCCC[C@@H]1NC(=O)[C@H](Cc2c[nH]c3ccccc23)NC(=O)C2(CCCC2)NC(=O)[C@H](Cc2c[nH]c3ccccc23)NC(=O)[C@@H]2CSCN2C(=O)[C@H]2CCCN2C1=O [Ex. 5, cyclo(-Trp-Cyp-Trp-Arg-DPro-Thz-)] (cyclo([Ac5c]WR[dP][Thz]W))
144 ± 84.1	3.1	NC(=O)CC[C@@H]1NC(=O)[C@H](Cc2c[nH]c3ccccc23)NC(=O)C2(CCCC2)NC(=O)[C@H](Cc2c[nH]c3ccc(O)cc23)NC(=O)[C@@H]2CSCN2C(=O)[C@H]2CCCN2C1=O [Ex. 7, cyclo(-Trp(5OH)-Cyp-Trp-Gln-^DPro-Thz-)] (cyclo([Trp(5-OH)][Ac5c]WQ[dP][Thz]))
52.5 ± 3.5	–	N=C(N)NCCC[C@@H]1NC(=O)[C@H](Cc2c[nH]c3ccccc23)NC(=O)C2(CCCC2)NC(=O)[C@H](Cc2c[nH]c3ccc(O)cc23)NC(=O)[C@@H]2Cc3ccccc3CN2C(=O)[C@H]2CCCN2C1=O [Ex. 8, cyclo(-Trp(5OH)-Cyp-Trp-Arg-^DPro-Tic-)] (cyclo([Ac5c]WR[dP][Tic][Trp(5-OH)]))
9.2 ± 3.6	2	NC(=O)CC[C@@H]1NC(=O)[C@H](Cc2c[nH]c3ccccc23)NC(=O)C2(CCCC2)NC(=O)[C@H](Cc2ccc3ccccc3c2)NC(=O)[C@@H]2Cc3ccccc3CN2C(=O)[C@H]2CCCN2C1=O [Ex. 9, cyclo(-2NaI-Cyp-Trp-Gln-^DPro-Tic-)] (cyclo([2Nal][Ac5c]WQ[dP][Tic]))
70.4 ± 19.2	–	N=C(N)NCCC[C@@H]1NC(=O)[C@H](Cc2c[nH]c3ccccc23)NC(=O)C2(CCCC2)NC(=O)[C@H](Cc2c[nH]c3ccccc23)NC(=O)[C@@H]2Cc3ccccc3CN2C(=O)[C@H]2CCN2C1=O [Ex. 25, cyclo(-Trp-Cyp-Trp-Arg-^DAze-Tic-)] (cyclo([Ac5c]WR[dAze][Tic]W))
57 ± 26.4	–	NCC[C@@H]1NC(=O)[C@H](Cc2c[nH]c3ccccc23)NC(=O)C2(CCCC2)NC(=O)[C@H](Cc2c[nH]c3ccccc23)NC(=O)[C@@H]2Cc3ccccc3CN2C(=O)[C@H]2CCN2C1=O [Ex. 26, cyclo(-Trp-Cyp-Trp-Dab-^DAze-Tic-)] (cyclo([Ac5c]W[Dab][dAze][Tic]W))
214 ± 106	109	CC1(C)SCN2C(=O)[C@H]3CCCN3C(=O)[C@H](CCCNC(=N)N)NC(=O)[C@H](Cc3c[nH]c4ccccc34)NC(=O)C3(CCCC3)NC(=O)[C@H](Cc3c[nH]c4ccc(O)cc34)NC(=O)[C@@H]21 [Ex. 29, cyclo(-Trp(5OH)-Cyp-Trp-Arg-^DPro-Thz(5,5Me2)-)] (cyclo([Ac5c]WR[dP][Thz(5,5-Me2)][Trp(5-OH)]))
190 ± 89.8	–	NCC[C@@H]1NC(=O)[C@H](Cc2c[nH]c3ccccc23)NC(=O)C2(CCCC2)NC(=O)[C@H](Cc2c[nH]c3ccccc23)NC(=O)[C@@H]2C[C@@H](O)CN2C(=O)[C@H]2CCCN2C1=O [Ex. 103, cyclo(-Trp-Cyp-Trp-Dab-^DPro-Hyp-)] (cyclo([Ac5c]W[Dab][dP][Hyp]W))
